Test results taken from patent US8637485B2, “5′,-substituted adenosynes preparation thereof and use as inhibitors of S-adenosylmethionine decarboxylase” (Southern Research Institute, priority 2007, dated 2014).
Where a name gives a salt, the structure may show the parent alone.

Tests used:
hAdoMetDC = target: T1, hAdoMetDC (Homo sapiens, UniProt P17707); assay: Assay of AdoMetDC activity (release of 14CO2 from S-adenosyl-L-[carboxy-14C]methionine) and determination of inhibitor IC50 values; type: biochemical; conditions: for IC50: at least 5 concentrations, curve fit of inhibitor concentration versus % inhibition of hAdoMetDC; for inhibition / inhibition at 100 µM: at 100 μM
T1 construct: the enzyme undergoes autoprocessing to give the α and the β subunits; made in house; host or cells: E. coli JM109 (pQE30-based plasmid)
T1 sequence (P17707 1-67 limits assumed): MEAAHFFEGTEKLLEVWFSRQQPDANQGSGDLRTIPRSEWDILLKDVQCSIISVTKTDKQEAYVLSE
T1 sequence (P17707 68-328 limits assumed): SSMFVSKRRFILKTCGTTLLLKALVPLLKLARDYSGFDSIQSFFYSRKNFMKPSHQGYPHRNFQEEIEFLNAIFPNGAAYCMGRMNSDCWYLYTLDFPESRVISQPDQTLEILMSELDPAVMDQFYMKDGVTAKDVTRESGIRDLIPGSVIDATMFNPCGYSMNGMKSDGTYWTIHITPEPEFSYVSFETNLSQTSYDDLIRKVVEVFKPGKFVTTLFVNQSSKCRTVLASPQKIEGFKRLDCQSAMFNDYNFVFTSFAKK
Method: Assay of AdoMetDC Activity and Determination of Inhibitor IC50 Values
(§1) AdoMetDC was assayed by measuring the release of ^14CO2 from S-adenosyl-L-[carboxy-^14C]methionine (Amersham Pharmacia Biotech, ˜60 mCi/mmol) (36). […] For determination of the abilities of compounds to inhibit AdoMetDC, the enzyme activity was determined in the presence of no inhibitor and at least 5 concentrations of each potential inhibitor. The IC50 values were determined from curve fitting to plots of the inhibitor concentration versus the % inhibition of AdoMetDC.
as §1

AdoMetDC = target: T2, AdoMetDC (Homo sapiens, UniProt P17707); conditions: previously reported; cited from earlier work
T2 sequence (P17707 1-334): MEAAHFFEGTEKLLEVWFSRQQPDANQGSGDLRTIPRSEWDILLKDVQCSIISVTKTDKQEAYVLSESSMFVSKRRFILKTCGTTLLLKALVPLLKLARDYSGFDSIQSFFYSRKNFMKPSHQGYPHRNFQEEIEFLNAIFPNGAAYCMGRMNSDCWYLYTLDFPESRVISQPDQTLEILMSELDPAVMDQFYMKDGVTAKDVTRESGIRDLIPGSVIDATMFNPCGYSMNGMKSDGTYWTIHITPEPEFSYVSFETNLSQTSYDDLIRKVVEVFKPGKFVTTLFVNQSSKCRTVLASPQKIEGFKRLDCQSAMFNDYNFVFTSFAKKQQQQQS

Row | SMILES | IC50 (hAdoMetDC) [µM] | also measured
1 | Cc1nc2c(N)ncnc2n1[C@@H]1O[C@H](CN(C)CCON)[C@@H](O)[C@H]1O [Compound 7a, 5′-[(2-Aminooxyethyl)methylamino]-5′-deoxy-8-methyladenosine sulfate (2.2:1 salt)] | – | increase in potency when an adenine 8-methyl substituent was added (hAdoMetDC; versus un-substituted parent compound): 8 fold
2 | CNc1nc2c(N)ncnc2n1[C@@H]1O[C@H](CN(C)CCON)[C@@H](O)[C@H]1O [Compound 7b, 5′-[(2-Aminooxyethyl)methylamino]-5′-deoxy-8-(methylamino)adenosine sulfate (2.1:1 salt)] | 0.086 | –
3 | CN(CCON)C[C@H]1O[C@@H](n2c(-c3ccccc3)nc3c(N)ncnc32)[C@H](O)[C@@H]1O.CN(CCON)C[C@H]1O[C@@H](n2c(-c3ccccc3)nc3c(N)ncnc32)[C@H](O)[C@@H]1O.O=S(=O)(O)O [Compound 7c, 5′-[(2-Aminooxyethyl)methylamino]-5′-deoxy-8-phenyladenosine sulfate (2:1 salt)] | – | inhibition (hAdoMetDC): <5% inhibition at 100 μM
4 | CNc1nc2c(N)ncnc2n1[C@@H]1O[C@H](CN(C)CCCCON)[C@@H](O)[C@H]1O [Compound 9a, 5′-[(4-Aminooxybutyl)methylamino]-5′-deoxy-8-(methylamino)adenosine sulfate (0.4:1 salt)] | 0.049 | –
5 | CN(CCCCON)C[C@H]1O[C@@H](n2c(-c3ccccc3)nc3c(N)ncnc32)[C@H](O)[C@@H]1O.O=S(=O)(O)O [Compound 9b, 5′-[(4-Aminooxybutyl)methylamino]-5′-deoxy-8-phenyladenosine sulfate (1.75:1 salt)] | – | inhibition (hAdoMetDC): <5% inhibition at 100 μM
6 | CN(CCCCON)C[C@H]1O[C@@H](n2c(=O)[nH]c3c(N)ncnc32)[C@H](O)[C@@H]1O [Compound 9c, 5′-[(4-Aminooxybutyl)methylamino]-5′-deoxy-8-oxoadenosine sulfate (1.9:1 salt)] | 0.011 | –
7 | Cc1nc2c(N)ncnc2n1[C@@H]1O[C@H](CN(C)CCCCON)[C@@H](O)[C@H]1O [Compound 9d, 5′-[(4-Aminooxybutyl)methylamino]-5′-deoxy-8-methyladenosine sulfate (1.9:1 salt)] | 0.005 | reduction in the IC50 value when an 8-methyl substituent was added to the adenine ring (hAdoMetDC; versus 8-unsubstituted parent compound): 3.4 fold
8 | CN(CCCCON)C[C@H]1O[C@@H](n2cnc3c(N)ncnc32)[C@H](O)[C@@H]1O [Compound 9f, 5′-[(4-Aminooxybutyl)methylamino]-5′-deoxyadenosine sulfate (2:1 salt)] | 0.018 | –
9 | CCc1nc2c(N)ncnc2n1[C@@H]1O[C@H](CN(C)CCC(N)=O)[C@@H](O)[C@H]1O [Compound 13e, 5′-[(2-Carboxamidoethyl)methyamino]-5′-deoxy-8-ethyladenosine sulfate (1.1:1 salt)] | 4 | –
10 | Cc1nc2c(N)ncnc2n1[C@@H]1O[C@H](CN(C)CC(N)=O)[C@@H](O)[C@H]1O.O=S(=O)(O)O [Compound 13f, 5′-[(Carboxamidomethyl)methylamino]-5′-deoxy-8-methyladenosine sulfate (1.45:1 salt)] | – | inhibition (hAdoMetDC): <5% inhibition at 100 μM
11 | CN(CCC(N)=O)C[C@H]1O[C@@H](n2cnc3c(N)ncnc32)[C@H](O)[C@@H]1O [Compound 13j, 5′-[(2-Carboxamidoethyl)methylamino]-5′-deoxyadenosine sulfate (1.9:1 salt)] | 7 | –
12 | Cc1nc2c(N)ncnc2n1[C@@H]1O[C@H](CN(C)CCC(=O)NN)[C@@H](O)[C@H]1O [Compound 13k, 5′-Deoxy-5′-[(2-hydrazinocarbonylethyl)methylamino]-8-methyladenosine sulfate (2:1 salt)] | 0.17 | –
13 | CN(CCC(=O)NN)C[C@H]1O[C@@H](n2cnc3c(N)ncnc32)[C@H](O)[C@@H]1O [Compound 13l, 5′-Deoxy-5′-[(2-hydrazinocarbonylethyl)methylamino]-adenosine sulfate (2:1 salt)] | 1.5 | –
14 | Cc1nc2c(N)ncnc2n1[C@@H]1O[C@H](CN(C)CC(=O)NN)[C@@H](O)[C@H]1O [Compound 13m, 5′-Deoxy-5′-[(hydrazinocarbonylmethyl)methylamino]-8-methyladenosine] | 31 | –
15 | CNc1nc2c(N)ncnc2n1[C@@H]1O[C@H](CN(C)CCCN)[C@@H](O)[C@H]1O [Compound 14a, 5′-[(3-Aminopropyl)methylamino]-5′-deoxy-8-(methylamino)adenosine sulfate (2.4:1 salt)] | 440 | –
16 | CN(CCCN)C[C@H]1O[C@@H](n2c(-c3ccccc3)nc3c(N)ncnc32)[C@H](O)[C@@H]1O.O=S(=O)(O)O [Compound 14b, 5′-[(3-Aminopropyl)methylamino]-5′-deoxy-8-phenyladenosine sulfate (2.2:1 salt)] | – | inhibition (hAdoMetDC): <5% inhibition at 100 μM
17 | CN(CCCN)C[C@H]1O[C@@H](n2cnc3c(N)ncnc32)[C@H](O)[C@@H]1O [Compound 14d, 5′-[(3-Aminopropyl)methylamino]-5′-deoxyadenosine sulfate (2:1 salt)] | 500 | –
18 | CN(CCN)C[C@H]1O[C@@H](n2cnc3c(N)ncnc32)[C@H](O)[C@@H]1O [Compound 14e, 5′-[(2-Aminoethyl)methylamino]-5′-deoxyadenosine] | – | inhibition at 100 µM (hAdoMetDC): < 5%
19 | Cc1nc2c(N)ncnc2n1[C@@H]1O[C@H](CN(C)CCN)[C@@H](O)[C@H]1O [Compound 14f, 5′-[(2-Aminoethyl)methylamino]-5′-deoxy-8-methyladenosine] | 88 | –
20 | CNCCCNC[C@H]1O[C@@H](n2c(NC)nc3c(N)ncnc32)[C@H](O)[C@@H]1O.O=S(=O)(O)O [Compound 15a, 5′-deoxy-8-(methylamino)-5′(3-methylaminopropylamino)adenosine sulfate (2.4:1 salt)] | – | inhibition (hAdoMetDC): <5% inhibition at 100 μM
21 | CNCCCNC[C@H]1O[C@@H](n2c(-c3ccccc3)nc3c(N)ncnc32)[C@H](O)[C@@H]1O.O=S(=O)(O)O [Compound 15b, 5′-deoxy-5′-(3-methylaminopropylamino)-8-phenyladenosine sulfate (1.7:1 salt)] | – | inhibition (hAdoMetDC): <5% inhibition at 100 μM
22 | CNCCNC[C@H]1O[C@@H](n2cnc3c(N)ncnc32)[C@H](O)[C@@H]1O [Compound 15c, 5′-deoxy-5′-(2-methylaminoethylamino)adenosine] | – | inhibition at 100 µM (hAdoMetDC): < 5%
23 | CNCCNC[C@H]1O[C@@H](n2c(C)nc3c(N)ncnc32)[C@H](O)[C@@H]1O [Compound 15d, 5′-deoxy-8-methyl-5′-(2-methylaminoethylamino)adenosine] | – | inhibition at 100 µM (hAdoMetDC): < 5%
24 | CN(CCNC(=N)N)C[C@H]1O[C@@H](n2cnc3c(N)ncnc32)[C@H](O)[C@@H]1O [Compound 18a, 5′-Deoxy 5′-[(2-guanidinoethyl)methylamino]adenosine] | – | inhibition at 100 µM (hAdoMetDC): < 5%
25 | C[S+](C)C[C@H]1O[C@@H](n2cnc3c(N)ncnc32)[C@H](O)[C@@H]1O [Compound 21d, 5′-Deoxy-5′-dimethylsulfonioadenosine chloride] | – | Ki (AdoMetDC): in the μM range

Continued, in another order:

Row | IC50 (hAdoMetDC) [µM] | SMILES | also measured
26 | 420 | CCc1nc2c(N)ncnc2n1[C@@H]1O[C@H](CN(C)CCCN)[C@@H](O)[C@H]1O [Compound 17d, 5′-[(3-Aminopropyl)methylamino]-5′-deoxy-8-ethyladenosine sulfate (2.5:1 salt)] | –
27 | 157 | CN(CCC(=N)NO)C[C@H]1O[C@@H](n2cnc3c(N)ncnc32)[C@H](O)[C@@H]1O [Compound 18c, 5′-Deoxy-5′-[(2-hydroxyamidinoethyl)methylamino]adenosine] | –
28 | 9 | CN(C)C[C@H]1O[C@@H](n2cnc3c(N)ncnc32)[C@H](O)[C@@H]1O [Compound 19b, 5′-Deoxy-5′-(N,N-dimethylamino)adenosine] | –
